Assays:
HL60 cells = test: HL60 cell proliferation assay (CellTiter-Glo); type: cell-based; conditions: Homo sapiens, HL-60, 72 h, CellTiter-Glo viability, read-out: Cell Line (IC50, nM) HL60
Procedure, shortened: (§1)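 Cells in IMDM/10% FBS seeded at 2,000 (K562) or 1,500 (HL60) per well, exposed to serially diluted compounds for 72 h at 37 °C, 5% CO2. Viability by CellTiter-Glo luminescence, normalized between DMSO (high) and cell-free media (low) controls.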

ABL1 (T315I) = ABL1 (T315I) (Homo sapiens, UniProt P00519, T315I); test: Luminescence-based ABL kinase assay (ADP-Glo, 300 μM ATP), T315I mutant; type: biochemical
Procedure, shortened: (§2)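 ABL1 (3.325 nM in the enzyme solution) was preincubated with compound for 30 min at RT in HEPES pH 7.5 buffer with MgCl2, EGTA, DTT, BSA and Brij-35. Adding Peptide 2 and ATP (6 μM and 1.2 mM in the start solution) began a 90 min RT reaction. ADP-Glo luminescence gave % activity and IC50.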

pCRKL in K562 cells = test: pCRKL ELISA assay in K562 cells; type: cell-based; conditions: Homo sapiens, 1.5 h, 90 minutes incubation, read-out: PCRKL ELISA, Cell Line IC50 (nM) K562
Procedure: K562 or Ba/F3 ABL T315I cells (2.0*10^5 cells/100 μl/well) were seeded in 96 well (Corning, cat #3799). Compounds were dissolved in DMSO, serially diluted in DMSO and then were added, mixed, and incubated for 90 minutes at 37° C., 5% CO2. Following the 90-minute incubation, plates were centrifuged for 5 min at 3000 RPM and supernatant was removed from each well. Cells were washed 3 times with 150 μl PBS prior to addition of 100 μl cell RIPA lysis buffer (Boston BioProducts, cat #BP-115D) supplied with 1×complete ULTRA cocktail inhibitor (Roche, 05892791001) and 1×PhosSTOP Phosphatase Inhibitor Cocktail Tablets (Roche, 04906837001). Cells were incubated with lysis buffer for 1 hour at 4° C. prior to storage at −80 C.
A capture antibody able to detect phosphorylated and non-phosphorylated CRKL (R&D Systems, cat #AF5127) was added to Meso Scale Discovery (MSD) standard bind plates (MSD, cat #L15XA-3) at 5 ug/mL and incubated at 4° C. overnight. The next day, plates were washed with PBS+0.05% Tween20 (PBST) and 150 μl of 5% BSA blocking solution was added for 1 hour at room temperature with shaking. Plates were washed with PBST. Lysates were thawed and 30 μl of lysate was added to the MSD plates and incubated for 2 hours at room temperature with shaking. MSD plates were washed with PBST and 30 μl of a detection antibody that binds phosphorylated pCRKL (R&D Systems, cat #MAB6910) was added at 1 μg/mL to each well. Plates were incubated for 1 hour at room temperature with shaking. Plates were washed with PBST prior to addition of 30 μl of a sulfo tagged goat anti mouse detection antibody (MSD cat #R32AC-1). Plates were incubated for 1 hour at room temperature with shaking. Plates were washed with PBST prior to addition of 150 ul of 1×MSD read buffer T (MSD, cat 4R92TC-2). Electrochemiluminescence (ECLU) was read on an MSD plate reader (Meso Scale Discovery). The remaining activity by calculated as follows: 00 Relative activity=100×(ELCUsample−ECLULC)/(ECLUHC−ECLULC). The low and high controls (LC/HC) are generated from lysate from wells without cells or with cells treated with 0.1% DMSO, respectively. IC50 values were calculated using XLFit software using a nonlinear regression model with a sigmoidal dose response and are shown in Table 4 and Table 5 below.

ABL1 = molecular target: T1, ABL1 (Homo sapiens, UniProt P00519); test: Luminescence-based ABL kinase assay (ADP-Glo, 300 μM ATP); type: biochemical
T1 construct: purchased Carna Biosciences
Procedure, shortened: as §2

K562 cells = test: K562 cell proliferation assay (CellTiter-Glo); type: cell-based; conditions: Homo sapiens, K562, 72 h, CellTiter-Glo viability, read-out: Cell Line (IC50, nM) K562
Procedure, shortened: as §1

IC50 (HL60 cells) [nM]	IC50 (ABL1 (T315I)) [nM]	IC50 (pCRKL in K562 cells) [nM]	IC50 (ABL1) [nM]	IC50 (K562 cells) [nM]	Structure (SMILES)
> 10000	68.4	680	62.9	220	COc1ncccc1-c1c[nH]c2nc(NC(=O)[C@H]3C[C@H]3F)ccc12 [Compound 26, (1R,2R)-2-fluoro-N-(3-(2-methoxypyridin-3-yl)-1H-pyrrolo[2,3-b]pyridin-6-yl)cyclopropane-1-carboxamide]
> 10000	0.705	685	7.47	292	CCOc1ncccc1-c1c[nH]c2nc(NC(=O)C3CC3)ccc12 [Compound 47, N-[3-(2-ethoxypyridin-3-yl)-1H-pyrrolo[2,3-b]pyridin-6-yl]cyclopropanecarboxamide]
> 10000	5.98	–	31.8	365	COc1ccccc1-c1c[nH]c2nc(NC(=O)NCCN3CCNCC3)ccc12 [Compound 121, 3-[3-(2-methoxyphenyl)-1H-pyrrolo[2,3-b]pyridin-6-yl]-1-[2-(piperazin-1-yl)ethyl]urea]
> 10000	3860	–	2580	2010	O=C(Nc1ccc2c(-c3cccnc3OCC(F)(F)F)c[nH]c2n1)[C@@H]1C[C@@H]1F [Compound 126, (1S,2S)-2-fluoro-N-(3-(2-(2,2,2-trifluoroethoxy)pyridin-3-yl)-1H-pyrrolo[2,3-b]pyridin-6-yl)cyclopropane-1-carboxamide]
> 10000	0.745	–	22.1	100	O=C(Nc1ccc2c(-c3c(F)cccc3OC3CC3)c[nH]c2n1)[C@@H]1C[C@@H]1F [Compound 127, (1S,2S)—N-[3-(2-cyclopropoxy-6-fluorophenyl)-1H-pyrrolo[2,3-b]pyridin-6-yl]-2-fluorocyclopropane-1-carboxamide]
> 10000	16.8	–	18.6	1380	COc1cc2ncsc2cc1-c1c[nH]c2nc(NC(=O)NCCN3CCNCC3)ccc12 [Compound 139, 3-[3-(5-methoxy-1,3-benzothiazol-6-yl)-1H-pyrrolo[2,3-b]pyridin-6-yl]-1-[2-(piperazin-1-yl)ethyl]urea; bis(formic acid)]
> 10000	1.37	–	4.65	8.67	COc1ncnc(OC2CC2)c1-c1c[nH]c2nc(NC(=O)[C@@H]3C[C@@H]3F)ccc12 [Compound 153, (1S,2S)—N-[3-(4-cyclopropoxy-6-methoxypyrimidin-5-yl)-1H-pyrrolo[2,3-b]pyridin-6-yl]-2-fluorocyclopropane-1-carboxamide]
> 10000	8.81	–	6.71	30.8	COc1nccc(OC2CC2)c1-c1c[nH]c2nc(NC(=O)[C@@H]3C[C@H]3OCCN(C)C)ccc12 [Compound 253]

The remaining lines, values behind:

Structure (SMILES)	IC50 (HL60 cells) [nM]	IC50 (ABL1 (T315I)) [nM]	IC50 (pCRKL in K562 cells) [nM]	IC50 (ABL1) [nM]	IC50 (K562 cells) [nM]
COc1ccccc1-c1c[nH]c2nc(NC(=O)[C@@H]3C[C@@H]3F)ccc12 [Compound 3, (1S,2S)-2-fluoro-N-(3-(2-methoxyphenyl)-1H-pyrrolo[2,3-b]pyridin-6-yl)cyclopropane-1-carboxamide]	> 10000	0.896	174	8.17	80.3
COc1c(-c2c[nH]c3nc(NC(=O)C4CC4)ccc23)ccc2[nH]cnc12 [Compound 15, N-[3-(4-methoxy-1H-1,3-benzodiazol-5-yl)-1H-pyrrolo[2,3-b]pyridin-6-yl]cyclopropanecarboxamide]	1710	2.78	468	12.1	181
COc1ccccc1-c1c[nH]c2nc(NC(=O)NCCN3CCN(C)CC3)ccc12 [Compound 42, 3-[3-(2-methoxyphenyl)-1H-pyrrolo[2,3-b]pyridin-6-yl]-1-[2-(4-methylpiperazin-1-yl)ethyl]urea]	> 10000	12.7	88.3	45.4	254
COc1ccccc1-c1n[nH]c2nc(NC(=O)C3CC3)ccc12 [Compound 44, N-[3-(2-methoxyphenyl)-1H-pyrazolo[3,4-b]pyridin-6-yl]cyclopropanecarboxamide]	> 10000	39.8	275	23.1	151
COc1ccc(F)c(OC)c1-c1c[nH]c2nc(NC(=O)[C@@H]3C[C@@H]3F)ccc12 [Compound 119, (1S,2S)-2-fluoro-N-[3-(3-fluoro-2,6-dimethoxyphenyl)-1H-pyrrolo[2,3-b]pyridin-6-yl]cyclopropane-1-carboxamide]	> 10000	2.57	–	4.67	32.2
COc1ccccc1-c1c[nH]c2nc(NC(=O)NCCOCCN(C)C)ccc12 [Compound 124, 3-[2-[2-(dimethylamino)ethoxy]ethyl]-1-[3-(2-methoxyphenyl)-1H-pyrrolo[2,3-b]pyridin-6-yl]urea]	> 10000	30.6	–	317	359
COc1ncc(F)c(OC)c1-c1c[nH]c2nc(NC(=O)[C@H]3C[C@H]3F)ccc12 [Compound 125, (1R,2R)-2-fluoro-N-[3-(5-fluoro-2,4-dimethoxypyridin-3-yl)-1H-pyrrolo[2,3-b]pyridin-6-yl]cyclopropane-1-carboxamide]	> 10000	39.5	–	22.2	104
CNCCCNC(=O)Nc1ccc2c(-c3c(OC)cccc3OC)c[nH]c2n1 [Compound 130, 1-[3-(2,6-dimethoxyphenyl)-1H-pyrrolo[2,3-b]pyridin-6-yl]-3-[3-(methylamino)propyl]urea]	> 10000	33.7	–	67	169
COc1cccc(OC)c1-c1c[nH]c2nc(NC(=O)NCCN(C)C)ccc12 [Compound 132, 1-[3-(2,6-dimethoxyphenyl)-1H-pyrrolo[2,3-b]pyridin-6-yl]-3-[2-(dimethylamino)ethyl]urea]	> 10000	97.5	–	143	234
O=C(NCCN1CCNCC1)Nc1ccc2c(-c3ccccc3OC3CC3)n[nH]c2n1 [Compound 136, 3-[3-(2-cyclopropoxyphenyl)-1H-pyrazolo[3,4-b]pyridin-6-yl]-1-[2-(piperazin-1-yl)ethyl]urea]	> 10000	54.5	–	27.4	333
COc1ccnc(OC)c1-c1c[nH]c2nc(NC(=O)NCCN3CCNCC3)ccc12 [Compound 137, 3-[3-(2,4-dimethoxypyridin-3-yl)-1H-pyrrolo[2,3-b]pyridin-6-yl]-1-[2-(piperazin-1-yl)ethyl]urea]	> 10000	40.6	–	36	733
COc1ncnc(OC)c1-c1c[nH]c2nc(NC(=O)NCCN3CCNCC3)ccc12 [Compound 138, 3-[3-(4,6-dimethoxypyrimidin-5-yl)-1H-pyrrolo[2,3-b]pyridin-6-yl]-1-[2-(piperazin-1-yl)ethyl]urea]	> 10000	140	–	51.2	527
COc1nc(C)nc(OC)c1-c1c[nH]c2nc(NC(=O)[C@@H]3C[C@@H]3F)ccc12 [Compound 142, (1S,2S)—N-(3-(4,6-dimethoxy-2-methylpyrimidin-5-yl)-1H-pyrrolo[2,3-b]pyridin-6-yl)-2-fluorocyclopropane-1-carboxamide]	> 10000	14.3	–	14.6	34.5

— patent publication US20240043420A1, “7-AZAINDOLE COMPOUNDS FOR INHIBITION OF BCR-ABL TYROSINE KINASES” (EnLiven Therapeutics, Inc., priority 2020, published 2024)
